Measured values published in patent US4566984A, “Ether polycarboxylates” (The Procter & Gamble Company, priority 1984, dated 1986).
Counter-ions that a name gives are not always drawn.

Experiment: Calcium Binding Constants Determination (calcium selective electrode titration)
Type: physicochemical
Conditions: for Calcium Ion Binding Constants, Log KCa, pH 9.5 / Calcium Ion Binding Constants, Log KCa, pH 7.6: 35° C., 0.1 M ionic strength
Excerpt: A computer system (Hewlett-Packard) with digital voltmeters was used to collect and analyze data from an Orion calcium selective electrode and a linear syringe buret (Sage Instruments syringe pump plus a linear potentiometer). […] Volumetric accuracy was better than +/- 0.5%.
Three hundred data pairs of [Ca total] vs 10^(E/S), which is a linear measure of [Ca free], were collected and corrected for dilution during each titration. S is the Nernst equation slope, ca. 29 mv/decade, and E is the calcium electrode voltage. Calcium ion was titrated into buffer solution. Here, L represents the sequestering ligand. A ligand-free standard titration calibrated the electrode response. […] A third titration, adding Ca ion to a solution of a fixed [L tot] and fixed [Mg tot] was compared with KCa at different [Ca tot]/[L tot] ratios to reveal KMg at those same ratios. [formula]
This line was extrapolated back to [Ca free]=0 and [Ca tot] at that point represented a measure of calcium binding capacity.

| Compound | Calcium Ion Binding Constants, Log KCa, pH 9.5 | Calcium Ion Binding Constants, Log KCa, pH 7.6 | calcium binding relative to sodium tripolyphosphate and sodium nitrilotriacetate | calcium binding relative to two prior art ether carboxylates and sodium citrate |
| --- | --- | --- | --- | --- |
| O=C([O-])CN(CC(=O)[O-])CC(=O)[O-].[Na+].[Na+].[Na+] [Nitrilotriacetic acid, sodium salt, reference compound] | 5.5 | 3.3 |  |  |
| O=C([O-])C1CCC(C(=O)[O-])C(C(=O)[O-])(C(=O)[O-])O1.[Na+].[Na+].[Na+].[Na+] (stereo not drawn) [Compound 7, Oxacyclohexane-2,2,3,6-tetracarboxylic acid, tetrasodium salt] | 6.2 |  | at least equivalent | clear advantage in calcium binding |

The next lines start with results.

| Calcium Ion Binding Constants, Log KCa, pH 9.5 | Calcium Ion Binding Constants, Log KCa, pH 7.6 | Compound | calcium binding relative to sodium tripolyphosphate and sodium nitrilotriacetate | calcium binding relative to two prior art ether carboxylates and sodium citrate |
| --- | --- | --- | --- | --- |
| 4.4 |  | O=C(O)COC(CC(=O)O)C(=O)O (stereo not drawn) [2-oxa-1,3,4 butanetricarboxylic acid, sodium salt, reference compound] |  |  |
| 5.5 | 5.3 | O=C(O)COC(CC(=O)O)(C(=O)O)C(=O)O [Compound 5, 3,3-dicarboxy-4-oxa-1,6 hexanedioic acid, tetrasodium salt] | at least equivalent | clear advantage in calcium binding |
| 4.9 | 3.1 | O=P(O)(O)OP(=O)(O)OP(=O)(O)O [Sodium tripolyphosphate, reference compound] |  |  |
